Laboratory results reported in patent US8207344B2, “GPR119 agonists” (Eli Lilly and Company, priority 2009, dated 2012).
Each block holds one compound with its values, some of them ahead of it.

Legend:
human GPR119 = target: T1, human GPR119 (Homo sapiens, UniProt Q8TDV5); assay: Human GPR119 activity assay (cAMP HTRF in 293 T-REx cells expressing hGPR119); assay type: cell-based; conditions: 293 T-REx cells expressing hGPR119, cAMP HTRF, 1 h incubation; read-out: EC50 (agonist concentration that gives 50% activation of the hGPR119 mediated cAMP increase)
T1 construct: expressed in transfected cells
T1 sequence (Q8TDV5 1-335): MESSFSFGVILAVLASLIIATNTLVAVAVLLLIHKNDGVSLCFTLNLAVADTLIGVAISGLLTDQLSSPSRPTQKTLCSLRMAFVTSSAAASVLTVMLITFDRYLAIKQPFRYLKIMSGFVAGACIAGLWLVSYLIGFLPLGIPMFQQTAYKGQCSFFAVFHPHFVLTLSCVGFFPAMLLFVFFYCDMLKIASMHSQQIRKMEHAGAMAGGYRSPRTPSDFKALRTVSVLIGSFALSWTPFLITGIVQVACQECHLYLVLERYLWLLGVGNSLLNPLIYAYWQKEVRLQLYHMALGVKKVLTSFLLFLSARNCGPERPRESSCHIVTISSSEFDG
Procedure: A stable cell line expressing human GPR119 off an inducible promoter is generated in 293 T-REx™ cells (Invitrogen). T-REx™ (Tetracycline-Regulated Expression) cell line stably expresses the tetracycline repressor protein and, therefore, allow for inducible expression of the gene of interest (GPR119) with doxycycline. Agonists to the human GPR119 receptor are characterized by measuring increases in the cAMP levels in 293 T-REx™ cells expressing hGPR119. 10,000 cells/well are seeded into a 96-well plate and cultured for 24 h in DMEM supplemented with 10% fetal bovine serum, 15 μg/mL Blasticidin and 200 μg/mL Hygromycin B. Next day, cells are stimulated with 1 ng/mL Doxycycline in DMEM with no further addition of Hygromycin B and Blasticidin. cAMP assay is performed after 18 h incubation with doxycycline. cAMP is determined using the cAMP HiRange HTRF assay (Cisbo International). Cells are washed with PBS and pre-incubated for 15 min with PBS supplemented with 2 mM glucose, 0.25 mM IBMX and 0.1% BSA. Test compounds diluted in the pre-incubation buffer are added and cells are further incubated at room temperature for 1 h. Incubation is stopped by addition of HTRF reagents diluted in the lysis buffer, followed by incubation for 1 h and measurements of fluorescence at […]. The potency of the agonists is determined as the agonist concentration that gives 50% activation of the hGPR119 mediated cAMP increase (EC50).

total GIP = assay: Mouse Gastric Inhibitory Polypeptide (GIP) assay; assay type: in vivo; conditions: male C57BL/6 mice, 0.5-6 h
Procedure: Male C57BL/6 mice (8-10 weeks of age, n=20/dose level, n=5/time point) are fasted overnight (16 hr), weighed the following morning, and then orally dosed with vehicle (1% HEC) or various doses of test article at 5 mL/kg. Animals are euthanized by CO2 asphyxiation for 1 minute, and then blood is collected by cardiac puncture at various times (0.5, 1.5, 3, and 6 h post compound dose) into EDTA plasma tubes containing 10 μL/mL DPP4 inhibitor (Millipore, DPP4-010) and 1.1×10^5 KIU/mL aprotinin. Blood samples are kept on ice until plasma is separated by centrifugation at 3000×g for 5 min. Resulting plasma samples are placed into 96-well plates and stored at −20° C. until analyzed. Measurements of total GIP (measured by Millipore kit EZRMGIP-55K) are performed for each time-point. For each treatment group, the AUC for GIP is determined by applying the trapezoid rule to the timepoint-specific average GIP levels. Potencies were estimated using piecewise linear interpolation across the collection of calculated GIP AUCs above vehicle from a dose response study. Compound potency is defined as the dose and/or concentration of compound that yielded an increase of 350 pg*hr/mL above the vehicle group GIP AUC over the timecourse of the experiment.

GLUTag cells = assay: Glucagon-like peptide 1 secretion in GLUTag cells; assay type: cell-based, murine; conditions: Mus musculus, 2 h at 37 C, 5 mM glucose, read-out: EC50 (agonist concentration that gives 50% increase in GLP-1)
Procedure: Effects of GPR119 agonists on glucagon-like peptide 1 (GLP-1) secretion are determined in vitro in GLUTag cells. GLUTag cells are an immortalized murine intestinal enteroendocrine cell line that express the preproglucagon gene and secrete GLP-1 in a regulated manner (Brubaker P L, Schloos J, Drucker D J. Regulation of glucagon-like peptide-1 synthesis and secretion in the GLUTag enteroendocrine cell line. Endocrinology. 1998 139:4108-14). To measure GLP-1 secretion, 15,000 cells/well are seeded in 96-well-plate and incubated for 3 days in DMEM supplemented with 10% FBS and 1% Glutamine. On the day of the experiment, cells are washed twice with the incubation buffer, EBSS supplemented with 5 mM glucose and 0.1% BSA. 150 μL of the incubation buffer containing test compounds is added to each well and cells are incubated at 37° C. for 2 h. After incubation, the supernatant is collected and filtered using 96-well-filter-plates. GLP-1 content in the filtrate is determined with the Mouse/Rat Total GLP-1 Assay (Meso Scale Discovery). The potency of the GPR119 agonists to stimulate GLP-1 secretion is determined as the agonist concentration that gives 50% increase in GLP-1 (EC50).

[1] = Oral bioavailability in Beagle dogs; assay type: in vivo; conditions: dog, plasma, 1 mg/kg IV, 3 mg/kg oral gavage
Excerpt: (§1) Methods for accessing oral bioavailability are well appreciated in the art. One such reference is Medicinal Research Reviews Vol 21 No. 5 382-396 (2001). The oral bioavailability of compounds of the present invention may be estimated essentially as follows.
(§2) Cohorts of three 250-400 gram male Sprague-Dawley rats or approximately 10 kg Beagle dogs (female or male) are used. […] Dogs are IV administered the compounds by cannulated cephalic vein and blood collections are by jugular vein. Animals are first IV dosed at 1 mg/kg and blood samples (0.1 to 0.2 mL) are then collected using EDTA as an anticoagulant at 0.0830, 0.25, 0.50, 1, 2, 4, 8, 12, and 24 h. After at least two days and overnight fasting, the animals are dosed at 3 mg/kg by oral gavage. Blood samples (0.1 to 0.2 mL) are then collected using EDTA as an anticoagulant at 0.25, 0.50, 1, 2, 4, 6, 8, 12, and 24 h. During the course of a study the total of blood (mL) collected is not to exceed 1% of total body weight in grams.
(§3) Compound plasma concentrations are measured by LC/MS/MS assays. Data are then analyzed using standard non-compartmental pharmacokinetic analysis. Oral bioavailability is calculated as: (AUC0-inifinity, oral/AUC0-inifinity, IV)×(Dose, IV./Dose, oral)×100%

plasma glucose = assay: Mouse Oral Glucose Tolerance Test (OGTT); assay type: in vivo, C57BL/6 mice
Procedure: Normal C57BL/6 mice are fasted overnight, randomized into groups (n=6) and orally dosed with vehicle (1% HEC, 0.25% tween 80, 0.05% antifoam) or 0.9, 2, 6 and 18 mg/kg GPR119 agonist suspended in vehicle. 30 minutes after the compound is administered, mice are dosed orally with a 50% dextrose solution at 3 g/kg. At various times (0, 20, 40, or 60 minutes post glucose), the mice are restrained in cotton gloves or paper towels and 1 mm or less of the tail is cut. A small drop of blood is placed onto Accu-Chek® glucometers (Roche model 22-044217) for glucose measurements. Three glucometers are used to read glucose in each collected sample, with the median value being reported as the final glucose value. Area under the plasma glucose curve (glucose AUC) is calculated for each group and the percentage decrease in the glucose AUC versus the control group is used as a measure of efficacy of the compound to decrease plasma glucose.

[2] = tested on: Diet-Induced Obese (DIO) mice; assay: Chronic treatment of Diet-Induced Obese (DIO) mice; assay type: in vivo, C57/BL6 mice; conditions: 30 mg/kg once daily, 3 weeks
Procedure: DIO male C57/BL6 mice are maintained on a calorie-rich diet and have free access to food and water for at least 2 weeks before randomization into groups by weight (n=8) and treatment. Animals are individually housed in a temperature-controlled (24° C.) facility with 12 hour light, 12 hour dark cycle. Body weights range from 34-40 g. Mice are administrated once daily vehicle (1% HEC), 30 mg/kg GPR119 agonist, 30 mg/kg DPPIV inhibitor or a combination of 30 mg/kg GPR119 agonist and 30 mg/kg DPPIV inhibitor. Treatment continues for 3 weeks. Food and body weights are recorded daily before dark photoperiod. Cumulative body weight change is calculated as the daily body weight minus body weight before treatment for each animal and presented as an average for the group. Food intake is measured daily for each animal and combined with the total amount of food consumed by that animal from all previous days to yield cumulative food intake, which is then averaged for the group. At the end of the study OGTT is performed after overnight fasting.

[3] = Oral bioavailability in Sprague-Dawley rats; assay type: in vivo; conditions: male, rat, plasma, 1 mg/kg IV, 3 mg/kg oral gavage
Excerpt: as §1, §2, §3

[4] = oral dosing 30 min before 3 g/kg dextrose, normal C57BL/6 mice

Structure (SMILES): CC(Oc1ccc(C2=CCN(S(C)(=O)=O)CC2)cc1)C1CCN(CC(C)(C)F)CC1 (single isomer, unassigned) [Example 8, 4-(4-{1-[1-(2-Fluoro-2-methyl-propyl)-piperidin-4-yl]-ethoxy}-phenyl)-1-methanesulfonyl-1,2,3,6-tetrahydro-pyridine]
EC50 (human GPR119): 1.1 nM

Structure (SMILES): CC(C)(CN1CCC(COc2ccc(C3=CCN(S(C)(=O)=O)CC3)nc2)CC1)C(F)(F)F [Example 3, 1′-Methanesulfonyl-5-[1-(3,3,3-trifluoro-2,2-dimethyl-propyl)-piperidin-4-ylmethoxy]-1′,2′,3′,6′-tetrahydro-[2,4′]bipyridinyl]
increase in GIP AUC over vehicle (total GIP; 10 mg/kg oral dose): 762 pg·h/mL

Structure (SMILES): CC(C)(F)CN1CCC(COc2ccc(C3=CCN(S(C)(=O)=O)CC3)cc2F)CC1 [Example 7, 4-{3-Fluoro-4-[1-(2-fluoro-2-methyl-propyl)-piperidin-4-ylmethoxy]-phenyl}-1-methanesulfonyl-1,2,3,6-tetrahydro-pyridine]
EC50 (human GPR119): 2.13 nM

Structure (SMILES): N[C@@H](CC(=O)N1CCn2c(nnc2C(F)(F)F)C1)Cc1cc(F)c(F)cc1F [Sitagliptin, sitagliptin, reference compound]
body weight [2]: did not alter
food intake [2]: did not alter

More lines, main results first:

EC50 (human GPR119): 4.61 nM
Structure (SMILES): CS(=O)(=O)N1CC=C(c2ccc(OCC3CCN(CC4(F)CCCC4)CC3)cc2)CC1 [Example 1, 4-{4-[1-(1-Fluoro-cyclopentylmethyl)-piperidin-4-ylmethoxy]-phenyl}-1-methanesulfonyl-1,2,3,6-tetrahydro-pyridine]

EC50 (human GPR119): 0.95 nM
EC50 (GLUTag cells): 62.7 nM
bioavailability [1]: 90%
Structure (SMILES): CC(C)(F)CN1CCC(COc2ccc(C3=CCN(S(C)(=O)=O)CC3)nc2)CC1 [Example 6, 5-[1-(2-Fluoro-2-methyl-propyl)-piperidin-4-ylmethoxy]-1′-methanesulfonyl-1′,2′,3′,6′-tetrahydro-[2,4′]bipyridinyl]
increase in GIP AUC over vehicle (total GIP; 1.6 mg/kg oral dose): 422 pg·h/mL
ED50 (plasma glucose; Mus musculus, oral, doses 0.9, 2, 6 and 18 mg/kg, normal C57BL/6 mice, read-out: ED50 (dose which produces a 50% decrease in glucose area under the curve)): 0.4 mg/kg
glucose tolerance (plasma glucose; [4]): improved glucose tolerance
postprandial plasma glucose (plasma glucose; [4]): significantly decreased
fasting plasma glucose (plasma glucose; oral dosing, normal C57BL/6 mice fasted overnight): did not influence
body weight [2]: mild decrease
food intake [2]: mild decrease
plasma glucose levels ([2]; OGTT at end of study): did not significantly modify

EC50 (GLUTag cells): 36.8 nM
Structure (SMILES): CC(F)(F)CN1CCC(COc2ccc(C3=CCN(S(C)(=O)=O)CC3)cc2)CC1 [Example 9, 4-{4-[1-(2,2-Difluoro-propyl)-piperidin-4-ylmethoxy]-phenyl}-1-methanesulfonyl-1,2,3,6-tetrahydro-pyridine]

EC50 (human GPR119): 0.95 nM
bioavailability [3]: 53%
Structure (SMILES): CS(=O)(=O)N1CC=C(c2ccc(OCC3CCN(CC4(C(F)(F)F)CC4)CC3)cc2)CC1 [Example 10, 1-Methanesulfonyl-4-{4-[1-(1-trifluoromethyl-cyclopropylmethyl)-piperidin-4-ylmethoxy]-phenyl}-1,2,3,6-tetrahydro-pyridine]
increase in GIP AUC over vehicle (total GIP; 10 mg/kg oral dose): 762 pg·h/mL
